Results published in patent USRE48461E1, “Modulation of androgen receptor expression” (Ionis Pharmaceuticals, Inc., priority 2012, dated 2021).
Oligonucleotides are written 5' to 3', each unit as a sugar letter and its base; * is a phosphorothioate linkage, no mark a phosphodiester; rarer units and linkages stand in square brackets, end groups in braces. Plain capitals give the bases only. k = constrained ethyl (cEt); d = 2'-deoxy (DNA)

Experiments:
Type in all cases: cell-based, human
TMPRSS2 mRNA = test: TMPRSS2 expression in C4-2B cells (Example 30); settings: 48 hrs
Protocol: Cells were plated at 1,000 cells per well. […] ISIS 549148 was included as a negative control. […] After an incubation period of 48 hrs, RNA levels of AR, PSA and TMPRSS2 were measured.
Cells were plated at 2,000 cells per well and cultured in CSS media with 1 nM DHT. […] ISIS 549148 was included as a negative control. […] After an incubation period of 48 hrs, RNA levels of AR, PSA and TMPRSS2 were measured. In the absence of DHT, AR expression in C4-2 cells was 188%, PSA expression was 43% and TMPRSS2 expression was 27% compared to the untreated control.

[1] = tested on: prostate-specific antigen (PSA) mRNA; test: PSA mRNA levels in LMR20 cells; settings: for PSA mRNA levels (% baseline value) after treatment with DHT / PSA mRNA levels (% baseline value) after treatment with R1881 / PSA mRNA levels (% baseline value) of cells without AR agonist treatment: LMR20 cells; for PSA mRNA levels (% baseline value) after treatment with DHT: DHT 10 nM 72 hrs; for PSA mRNA levels (% baseline value) after treatment with R1881: R1881 10 nM 72 hrs; for PSA mRNA levels (% baseline value) of cells without AR agonist treatment: no AR agonist; for PSA mRNA levels in LMR20 cells: with or without DHT/R1881
Protocol: LMR20 cells were plated at 1,500 cells per well in phenol red-free medium with CSS. […] Results are presented in Tables 43-45 as mRNA levels expressed as a percentage of the baseline values. mRNA levels may be lowered or increased after treatment.

[2] = tested on: prostate-specific antigen (PSA) mRNA; test: Time-course PSA expression in C4-2B cells
Protocol: C4-2B cells were plated at 1,000 cells per well in complete medium. […] ISIS 549148 was included as a negative control. […] After a treatment period of 8 hours, 24 hours, and 48 hours, AR expression was measured with primer probe set hAR-LTS00943. Results are presented in Tables 70-72 as percent expression of AR, relative to non-treated cells.
Expression analysis of prostate-specific antigen (PSA) and TMPRSS2 were also analyzed. Results are presented in Tables 73-75 as percent inhibition of PSA expression and Tables 76-78 as percent inhibition of TMPRSS2 expression, relative to non-treated cells.

AR mRNA = AR mRNA levels in LMR20 cells (with/without DHT or R1881); settings: for AR mRNA levels (% baseline value) after treatment with DHT / AR mRNA levels (% baseline value) after treatment with R1881 / AR mRNA levels (% baseline value) of cells without AR agonist treatment: LMR20 cells; for AR mRNA levels (% baseline value) after treatment with DHT: DHT 10 nM 72 hrs; for AR mRNA levels (% baseline value) after treatment with R1881: R1881 10 nM 72 hrs; for AR mRNA levels (% baseline value) of cells without AR agonist treatment: no AR agonist; for AR mRNA levels in LMR20 cells: with or without DHT/R1881
Protocol: LMR20 cells were plated at 1,500 cells per well in phenol red-free medium with CSS.

LNCaP cells = test: LNCaP cell proliferation, ASO in combination with MDV3100 (Example 20); settings: Homo sapiens, LNCaP, read-out: inhibited proliferation, MDV3100 with control oligonucleotide ISIS 549148
Protocol: LNCaP cells were plated at 1,000 cells per well. […] ISIS 549148 was included as a negative control. […] After a treatment period of 5 days, the proliferative capacity of the cancer cells was measured with CellTiter 96® AQueous One or CellTiter-Glo® Solution Cell Proliferation kit (Promega), following the manufacturer's instructions. […]

PSA mRNA = test: PSA expression in VCaP cells; settings: 48 hrs
Protocol: Cells were plated at 10,000 cells per well. […] After an incubation period of 48 hrs, RNA levels of full length AR, the V7 variant, PSA and TMPRSS2 were measured.
After an incubation period of 48 hrs, RNA levels of full length AR, the V7 variant, PSA and TMPRSS2 were measured. The data is presented in Tables 108 expressed as percent expression of gene levels compared to the untreated control.
Cells were plated at 15,000 cells per well and cultured in CSS media for 16 hours. […] After 4 hrs, 1 nM DHT was added. […] After an incubation period of 48 hrs, RNA levels of AR, PSA and TMPRSS2 were measured.

CNC(=O)c1ccc(N2C(=S)N(c3ccc(C#N)c(C(F)(F)F)c3)C(=O)C2(C)C)cc1F [MDV3100, 4-(3-(4-cyano-3-(trifluoromethyl)phenyl)-5,5-dimethyl-4-oxo-2-thioxoimidazolidin-1-yl)-2-fluoro-N-methylbenzamide, reference compound]
Percent inhibition of TMPRSS2 expression (TMPRSS2 mRNA; CSS + DHT medium, 0.04 μM): 0%
Percent inhibition of TMPRSS2 expression (TMPRSS2 mRNA; CSS + DHT medium, 0.2 μM): 11%
Percent inhibition of TMPRSS2 expression (TMPRSS2 mRNA; CSS + DHT medium, 1 μM): 48%
Percent inhibition of TMPRSS2 expression (TMPRSS2 mRNA; CSS + DHT medium, 5.0 μM): 66%
Percent inhibition of TMPRSS2 expression (TMPRSS2 mRNA; complete medium, 0.04 μM): 3%
Percent inhibition of TMPRSS2 expression (TMPRSS2 mRNA; complete medium, 0.2 μM): 24%
Percent inhibition of TMPRSS2 expression (TMPRSS2 mRNA; complete medium, 1 μM): 55%
Percent inhibition of TMPRSS2 expression (TMPRSS2 mRNA; complete medium, 5.0 μM): 71%
PSA mRNA levels (% baseline value) after treatment with DHT ([1]; ASO 0.04 μM): 124 % baseline value
PSA mRNA levels (% baseline value) after treatment with DHT ([1]; ASO 0.20 μM): 108 % baseline value
PSA mRNA levels (% baseline value) after treatment with DHT ([1]; ASO 1.0 μM): 95 % baseline value
PSA mRNA levels (% baseline value) after treatment with DHT ([1]; ASO 5.0 μM): 95 % baseline value
PSA mRNA levels (% baseline value) after treatment with R1881 ([1]; ASO 0.04 μM): 84 % baseline value
PSA mRNA levels (% baseline value) after treatment with R1881 ([1]; ASO 0.20 μM): 101 % baseline value
PSA mRNA levels (% baseline value) after treatment with R1881 ([1]; ASO 1.0 μM): 92 % baseline value
PSA mRNA levels (% baseline value) after treatment with R1881 ([1]; ASO 5.0 μM): 87 % baseline value
PSA mRNA levels (% baseline value) of cells without AR agonist treatment ([1]; ASO 0.04 μM): 98 % baseline value
PSA mRNA levels (% baseline value) of cells without AR agonist treatment ([1]; ASO 0.20 μM): 93 % baseline value
PSA mRNA levels (% baseline value) of cells without AR agonist treatment ([1]; ASO 1.0 μM): 90 % baseline value
PSA mRNA levels (% baseline value) of cells without AR agonist treatment ([1]; ASO 5.0 μM): 113 % baseline value
PSA mRNA levels in LMR20 cells [1]: did not reduce either PSA or TMPRSS2 mRNA levels
Percent inhibition of PSA expression compared to the control group in 8 hours ([2]; 0.04 μM): 0%
Percent inhibition of PSA expression compared to the control group in 24 hours ([2]; 0.04 μM): 24%
Percent inhibition of PSA expression compared to the control group in 48 hours ([2]; 0.04 μM): 5%
Percent inhibition of PSA expression compared to the control group in 8 hours ([2]; 0.2 μM): 3%
Percent inhibition of PSA expression compared to the control group in 24 hours ([2]; 0.2 μM): 24%
Percent inhibition of PSA expression compared to the control group in 48 hours ([2]; 0.2 μM): 5%
Percent inhibition of PSA expression compared to the control group in 8 hours ([2]; 1 μM): 23%
Percent inhibition of PSA expression compared to the control group in 24 hours ([2]; 1 μM): 53%
Percent inhibition of PSA expression compared to the control group in 48 hours ([2]; 1 μM): 32%
Percent inhibition of PSA expression compared to the control group in 8 hours ([2]; 5.0 μM): 33%
Percent inhibition of PSA expression compared to the control group in 24 hours ([2]; 5.0 μM): 65%
Percent inhibition of PSA expression compared to the control group in 48 hours ([2]; 5.0 μM): 63%
PSA expression ([2]; time course): also reduced downstream gene expressions but not as potently as that with the ISIS oligonucleotides
AR mRNA levels (% baseline value) after treatment with DHT (AR mRNA; ASO 0.04 μM): 105 % baseline value
AR mRNA levels (% baseline value) after treatment with DHT (AR mRNA; ASO 0.20 μM): 124 % baseline value
AR mRNA levels (% baseline value) after treatment with DHT (AR mRNA; ASO 1.0 μM): 110 % baseline value
AR mRNA levels (% baseline value) after treatment with DHT (AR mRNA; ASO 5.0 μM): 143 % baseline value
AR mRNA levels (% baseline value) after treatment with R1881 (AR mRNA; ASO 0.04 μM): 94 % baseline value
AR mRNA levels (% baseline value) after treatment with R1881 (AR mRNA; ASO 0.20 μM): 107 % baseline value
AR mRNA levels (% baseline value) after treatment with R1881 (AR mRNA; ASO 1.0 μM): 115 % baseline value
AR mRNA levels (% baseline value) of cells without AR agonist treatment (AR mRNA; ASO 0.04 μM): 106 % baseline value
AR mRNA levels (% baseline value) of cells without AR agonist treatment (AR mRNA; ASO 0.20 μM): 101 % baseline value
AR mRNA levels (% baseline value) of cells without AR agonist treatment (AR mRNA; ASO 1.0 μM): 99 % baseline value
AR mRNA levels (% baseline value) of cells without AR agonist treatment (AR mRNA; ASO 5.0 μM): 92 % baseline value
AR mRNA levels in LMR20 cells (AR mRNA): increased the levels of AR mRNA in cells treated with AR agonist
inhibition at 0.08 µM (LNCaP cells): 7%
Percent of gene expression, PSA (PSA mRNA; CSS + DHT medium, 0.04 μM): 90%
Percent of gene expression, PSA (PSA mRNA; CSS + DHT medium, 0.2 μM): 72%
Percent of gene expression, PSA (PSA mRNA; CSS + DHT medium, 1.0 μM): 57%
Percent of gene expression, PSA (PSA mRNA; CSS + DHT medium, 5.0 μM): 30%
Percent of gene expression, PSA (PSA mRNA; complete medium, 0.04 μM): 105%
Percent of gene expression, PSA (PSA mRNA; complete medium, 0.2 μM): 76%
Percent of gene expression, PSA (PSA mRNA; complete medium, 1.0 μM): 75%
Percent of gene expression, PSA (PSA mRNA; complete medium, 5.0 μM): 61%

549458 (kG*kT*kT*dG*dA*dT*dT*dT*dA*dA*dT*dG*dG*kT*kT*kG) [compound 549458]
PSA mRNA levels (% baseline value) after treatment with DHT ([1]; ASO 0.04 μM): 93 % baseline value
PSA mRNA levels (% baseline value) after treatment with DHT ([1]; ASO 0.20 μM): 71 % baseline value
PSA mRNA levels (% baseline value) after treatment with DHT ([1]; ASO 1.0 μM): 47 % baseline value
PSA mRNA levels (% baseline value) after treatment with DHT ([1]; ASO 5.0 μM): 47 % baseline value
PSA mRNA levels (% baseline value) after treatment with R1881 ([1]; ASO 0.04 μM): 93 % baseline value
PSA mRNA levels (% baseline value) after treatment with R1881 ([1]; ASO 0.20 μM): 67 % baseline value
PSA mRNA levels (% baseline value) after treatment with R1881 ([1]; ASO 1.0 μM): 50 % baseline value
PSA mRNA levels (% baseline value) after treatment with R1881 ([1]; ASO 5.0 μM): 44 % baseline value
PSA mRNA levels (% baseline value) of cells without AR agonist treatment ([1]; ASO 0.04 μM): 135 % baseline value
PSA mRNA levels (% baseline value) of cells without AR agonist treatment ([1]; ASO 0.20 μM): 85 % baseline value
PSA mRNA levels (% baseline value) of cells without AR agonist treatment ([1]; ASO 1.0 μM): 50 % baseline value
PSA mRNA levels (% baseline value) of cells without AR agonist treatment ([1]; ASO 5.0 μM): 72 % baseline value
AR mRNA levels (% baseline value) after treatment with DHT (AR mRNA; ASO 0.04 μM): 91 % baseline value
AR mRNA levels (% baseline value) after treatment with DHT (AR mRNA; ASO 0.20 μM): 66 % baseline value
AR mRNA levels (% baseline value) after treatment with DHT (AR mRNA; ASO 1.0 μM): 34 % baseline value
AR mRNA levels (% baseline value) after treatment with DHT (AR mRNA; ASO 5.0 μM): 31 % baseline value
AR mRNA levels (% baseline value) after treatment with R1881 (AR mRNA; ASO 0.04 μM): 88 % baseline value
AR mRNA levels (% baseline value) after treatment with R1881 (AR mRNA; ASO 0.20 μM): 56 % baseline value
AR mRNA levels (% baseline value) after treatment with R1881 (AR mRNA; ASO 1.0 μM): 25 % baseline value
AR mRNA levels (% baseline value) after treatment with R1881 (AR mRNA; ASO 5.0 μM): 32 % baseline value
AR mRNA levels (% baseline value) of cells without AR agonist treatment (AR mRNA; ASO 0.04 μM): 101 % baseline value
AR mRNA levels (% baseline value) of cells without AR agonist treatment (AR mRNA; ASO 0.20 μM): 75 % baseline value
AR mRNA levels (% baseline value) of cells without AR agonist treatment (AR mRNA; ASO 1.0 μM): 30 % baseline value
AR mRNA levels (% baseline value) of cells without AR agonist treatment (AR mRNA; ASO 5.0 μM): 25 % baseline value

GTTGATTTAATGGTTG (all phosphorothioate, sugars by position not given here; further chemistry not fully specified) [ISIS 549458]
PSA mRNA levels in LMR20 cells [1]: reduced PSA levels and TMPRSS2 more extensively than the LNA gapmer ISIS 554221 or MDV3100
AR mRNA levels in LMR20 cells (AR mRNA): reduced AR mRNA levels in LMR20 cells, treated with or without either AR agonist, in a dose dependent manner relative to the baseline
